Reference: patent US20240366589A1, “NHE3-BINDING COMPOUNDS AND METHODS FOR INHIBITING PHOSPHATE TRANSPORT” (Ardelyx, Inc., priority 2013, published 2024)

What was measured:
[1] = test system: absorption of sodium from the intestinal lumen; experiment: Fecal form score (FFS) 16 h after oral dose in rats; type: in vivo, rat; details: oral gavage, 16 h post-dose, scale 1-5
Protocol: (§1) Inhibition of intestinal sodium and phosphate absorption. Urinary sodium concentration and fecal form were measured to assess the ability of selected example compounds to inhibit the absorption of sodium from the intestinal lumen. Eight-week old Sprague-Dawley rats were purchased from Charles River Laboratories (Hollister, CA), were housed 2 per cage, and acclimated for at least 3 days before study initiation. Animals were fed Harlan Teklad Global 2018 rodent chow (Indianapolis, IN) and water ad libitum throughout the study and maintained in a standard light/dark cycle of 6 AM to 6 PM. On the day of the study, between 4 PM and 5 PM, a group of rats (n=6) were dosed via oral gavage with test compound, or a pharmaceutically acceptable salt thereof, or vehicle (water) at a volume of 10 mL/kg.
(§2) After dose administration animals were placed in individual metabolic cages where they were also fed the same chow in meal form and watered ad libitum. At 16 h post-dose, the urine samples were collected and fecal form was assessed by two independent observations. Fecal forms were scored according to a common scale associated with increasing fecal water to the wettest observation in the cage's collection funnel (1, normal pellet; 2, pellet adhering to sides of collection funnel due to moisture; 3, loss of normal pellet shape; 4, complete loss of shape with a blotting pattern; 5, liquid fecal streams evident). A rat's fecal form score (FFS) was determined by averaging both observational scores for all rats within a group (n=6). The vehicle group average was 1.

[2] = test system: absorption of sodium from the intestinal lumen; experiment: Inhibition of intestinal sodium absorption: urinary sodium (uNa) 16 h after single oral dose in rats; type: in vivo, rat; details: oral gavage, 16 h post-dose
Protocol: as §1, §2
For urine samples, the volumes were determined gravimetrically and centrifuged at 3,600×g. The supernatants were diluted 100-fold in deionized Milli-Q water then filtered through a 0.2 μm GHP Pall AcroPrep filter plate (Pall Life Sciences, Ann Arbor, MI) prior to analysis by ion chromatography. Ten microliters of each filtered extract was injected onto a Dionex ICS-3000 ion chromatograph system (Dionex, Sunnyvale, CA). Cations were separated by an isocratic method using 25 mM methanesulfonic acid as the eluent on an IonPac CS12A 2 mm i.d.×250 mm, 8 μm particle size cation exchange column (Dionex). Sodium was quantified using standards prepared from a cation standard mix containing Li^+, Na^+, NH4^+, K^+, Mg^2+, and Ca^2+ (Dionex). The mean mass of sodium urinated for every group in the 16 h period was determined with the vehicle group usually urinating approximately 21 mg sodium. The urine Na (uNa) for rats in the test groups were expressed as a percentage of the vehicle mean and the means were compared to that of the vehicle group by utilizing a one-way analysis of variance coupled with a Dunnett's post hoc test.
Further experiments were performed to test the compounds under the persistent and prompt conditions described above, and to test their effects on urinary excretion of sodium in rats. The latter was performed by orally dosing the compounds in rats (single dose) and measuring urinary Na excretion (as a % of vehicle). The results are indicated as percentage of urinary sodium (UNa %); low values indicate relatively active compounds.

[3] = test system: phosphorus and calcium levels in the urine of rats; experiment: Urinary excretion of phosphate and calcium in rats (16 h overnight urine); type: in vivo, rat; details: rats, oral gavage, 16 h post-dose
Rat NHE3 = target: T1, Rat NHE3 (Rattus norvegicus, UniProt P26433); experiment: Cell-based NHE3 activity under prompt conditions (OK cells, BCECF pH recovery), rat NHE3; details: prompt conditions
T1 construct: expressed in transfected cells; host or cells: Opossum kidney (OK) cells (ATCC), electroporation
T1 sequence (P26433 29-831): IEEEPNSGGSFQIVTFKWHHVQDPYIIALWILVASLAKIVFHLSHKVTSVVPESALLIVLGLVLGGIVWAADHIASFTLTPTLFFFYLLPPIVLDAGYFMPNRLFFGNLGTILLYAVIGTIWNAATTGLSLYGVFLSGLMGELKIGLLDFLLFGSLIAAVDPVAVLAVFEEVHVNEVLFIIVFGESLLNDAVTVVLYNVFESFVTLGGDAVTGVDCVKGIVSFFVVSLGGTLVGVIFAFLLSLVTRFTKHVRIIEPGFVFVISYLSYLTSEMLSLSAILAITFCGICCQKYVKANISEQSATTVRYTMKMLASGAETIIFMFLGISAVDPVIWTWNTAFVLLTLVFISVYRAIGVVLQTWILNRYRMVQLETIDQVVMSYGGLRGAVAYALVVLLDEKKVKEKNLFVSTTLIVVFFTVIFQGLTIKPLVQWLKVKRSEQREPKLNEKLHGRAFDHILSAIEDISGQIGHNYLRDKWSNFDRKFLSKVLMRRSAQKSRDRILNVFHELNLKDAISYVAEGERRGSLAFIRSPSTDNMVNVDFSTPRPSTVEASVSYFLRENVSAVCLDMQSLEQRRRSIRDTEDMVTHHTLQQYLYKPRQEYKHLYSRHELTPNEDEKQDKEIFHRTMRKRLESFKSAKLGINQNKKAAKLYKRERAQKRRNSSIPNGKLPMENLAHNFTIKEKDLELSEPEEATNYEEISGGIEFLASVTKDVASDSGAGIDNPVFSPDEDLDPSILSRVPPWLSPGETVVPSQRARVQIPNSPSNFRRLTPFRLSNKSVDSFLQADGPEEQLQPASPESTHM
Protocol: Cell-based activity under Prompt Conditions. Rat or human NHE3-mediated Na^+-dependent H antiport was measured using a modification of the pH sensitive dye method originally reported by Paradiso (PNAS USA. 81:7436-7440, 1984). Opossum kidney (OK) cells were obtained from the ATCC and propagated per their instructions. The rat NHE3 gene (GenBank M85300) or the human NHE3 gene (GenBank NM_004174.1) was introduced into OK cells via electroporation, and cells were seeded into 96 well plates and grown overnight. Medium was aspirated from the wells, cells were washed twice with NaCl-HEPES buffer (100 mM NaCl, 50 mM HEPES, 10 mM glucose, 5 mM KCl, 2 mM CaCl2, 1 mM MgCl2, pH 7.4), then incubated for 30 min at room temperature with NH4Cl-HEPES buffer (20 mM NH4Cl, 80 mM NaCl, 50 mM HEPES, 5 mM KCl, 2 mM CaCl2, 1 mM MgCl2, pH 7.4) containing 5 μM bis(acetoxymethyl) 3,3′-(3′,6′-bis(acetoxymethoxy)-5-((acetoxymethoxy)carbonyl)-3-oxo-3H-spiro[isobenzofuran-1,9′-xanthene]-2′,7′-diyl)dipropanoate (BCECF-AM).
Cells were washed twice with Ammonium free, Na^+-free HEPES (100 mM choline, 50 mM HEPES, 10 mM glucose, 5 mM KCl, 2 mM CaCl2, 1 mM MgCl2, pH 7.4) and incubated in the same buffer for 10 minutes at room temperature to lower intracellular pH. […] Initial rates were plotted as the average 2 or more replicates, and pIC50 values were estimated using GraphPad Prism.
Cell-based activity of NHE3 Activity under ‘Prompt’ Conditions. This assay was performed as described in Example 1 (supra).

| Prompt Rat NHE3 pIC50 (Rat NHE3) | SMILES | Fecal Form Score average ([1]; dose 10 mg/kg) | Urine Na % of control ([2]; dose 10 mg/kg) [%] | Urine P % of control ([3]; dose 10 mg/kg) [%] | Fecal Form Score average ([1]; dose 3 mg/kg) | Urine Na % of control ([2]; dose 3 mg/kg) [%] | Urine P % of control ([3]; dose 3 mg/kg) [%] | Fecal Form Score average ([1]; dose 1 mg/kg) | Urine Na % of control ([2]; dose 1 mg/kg) [%] | Urine P % of control ([3]; dose 1 mg/kg) [%] |
| --- | --- | --- | --- | --- | --- | --- | --- | --- | --- | --- |
| 7.80 | CN1Cc2c(Cl)cc(Cl)cc2C(c2cccc(S(=O)(=O)NCCOCCOCCNC(=O)CN(CCOCCOCCOCCN)CC(=O)NCCOCCOCCNS(=O)(=O)c3cccc([C@@H]4CN(C)Cc5c(Cl)cc(Cl)cc54)c3)c2)C1 (stereo in doubt) [compound 120] | – | – | – | 1 | 71 | 71 | – | – | – |
| 6.60 | CN1Cc2c(Cl)cc(Cl)cc2C(c2cccc(S(N)(=O)=O)c2)C1 (stereo not drawn) [compound 1] | 1 | 87 | 52 | – | – | – | – | – | – |
| 7.30 | CN1Cc2c(Cl)cc(Cl)cc2[C@@H](c2cccc(S(=O)(=O)NCCOCCOCCNC(=O)NCCCCNC(=O)NCCOCCOCCNS(=O)(=O)c3cccc([C@@H]4CN(C)Cc5c(Cl)cc(Cl)cc54)c3)c2)C1 [compound 39] | 1 | 68 | 130 | – | – | – | 1 | 71 | 166 |
| <5.00 | CCCCCCCCCCC(=O)NCCOCCOCCOCCNS(=O)(=O)c1cccc([C@@H]2CN(C)Cc3c(Cl)cc(Cl)cc32)c1 [compound 92] | 1 | 62 | 70 | – | – | – | – | – | – |
| <5.00 | CN1Cc2c(Cl)cc(Cl)cc2[C@H](c2cccc(S(=O)(=O)NCCOCCOCCOCCNC(=O)c3ccc(-c4ccc(Cl)cc4)cc3)c2)C1 [compound 93] | 1 | 78 | 75 | – | – | – | – | – | – |
| 6.60 | CCCCCCCCOCCOCCOCCOCCOCCOC(=O)NCCOCCOCCOCCNS(=O)(=O)c1cccc([C@@H]2CN(C)Cc3c(Cl)cc(Cl)cc32)c1 [compound 102] | 1 | 86 | 92 | – | – | – | – | – | – |
| 6.70 | CCC(=O)NCCOCCOCCOCCNS(=O)(=O)c1cccc([C@@H]2CN(C)Cc3c(Cl)cc(Cl)cc32)c1 [compound 103] | 1 | 40 | 71 | – | – | – | – | – | – |
| 6.70 | C=CC(=O)NCCOCCOCCOCCNS(=O)(=O)c1cccc([C@@H]2CN(C)Cc3c(Cl)cc(Cl)cc32)c1 [compound 104] | 2 | 56 | 62 | – | – | – | – | – | – |
| <5.00 | CCCCCCCCOc1ccc(CNCCOCCOCCOCCNS(=O)(=O)c2cccc([C@@H]3CN(C)Cc4c(Cl)cc(Cl)cc43)c2)cc1 [compound 111] | 2 | 60 | 69 | – | – | – | – | – | – |
| <5.00 | CN1Cc2c(Cl)cc(Cl)cc2[C@H](c2cccc(S(=O)(=O)NCCOCCOCCOCCNCc3ccc(-c4ccc(Cl)cc4)cc3)c2)C1 [compound 112] | 1 | 73 | 67 | – | – | – | – | – | – |

Further lines, the compound ahead of its results:

| SMILES | Prompt Rat NHE3 pIC50 (Rat NHE3) | Fecal Form Score average ([1]; dose 10 mg/kg) | Urine Na % of control ([2]; dose 10 mg/kg) [%] | Urine P % of control ([3]; dose 10 mg/kg) [%] | Fecal Form Score average ([1]; dose 3 mg/kg) | Urine Na % of control ([2]; dose 3 mg/kg) [%] | Urine P % of control ([3]; dose 3 mg/kg) [%] | Fecal Form Score average ([1]; dose 1 mg/kg) | Urine Na % of control ([2]; dose 1 mg/kg) [%] | Urine P % of control ([3]; dose 1 mg/kg) [%] |
| --- | --- | --- | --- | --- | --- | --- | --- | --- | --- | --- |
| CN(CC(=O)NCCOCCOCCNS(=O)(=O)c1ccc(O[C@H]2c3ccccc3C[C@@H]2N2CCCCC2)cc1)CC(=O)NCCOCCOCCNS(=O)(=O)c1ccc(O[C@H]2c3ccccc3C[C@@H]2N2CCCCC2)cc1 (racemic) [compound 50] | – | 1 | 82 | 50 | – | – | – | – | – | – |
| CN1Cc2c(Cl)cc(Cl)cc2[C@H](c2cccc(S(=O)(=O)NCCOCCOCCNC(=O)CCC(CCC(=O)NCCOCCOCCNS(=O)(=O)c3cccc([C@@H]4CN(C)Cc5c(Cl)cc(Cl)cc54)c3)(CCC(=O)NCCOCCOCCNS(=O)(=O)c3cccc([C@@H]4CN(C)Cc5c(Cl)cc(Cl)cc54)c3)NC(=O)[C@H]3CCCC[C@@H]3C(=O)O)c2)C1 (racemic) [compound 141] | – | – | – | – | 2 | 63 | 24 | – | – | – |
| CN1Cc2c(Cl)cc(Cl)cc2[C@H](c2cccc(S(=O)(=O)NCCOCCOCCNC(=O)CN(CCOCCOCCOCCNC(=O)c3ccc(-c4ccc(Cl)cc4)cc3)CC(=O)NCCOCCOCCNS(=O)(=O)c3cccc([C@@H]4CN(C)Cc5c(Cl)cc(Cl)cc54)c3)c2)C1 [compound 105] | 5.90 | – | – | – | 1 | 119 | 154 | – | – | – |
| CN1Cc2c(Cl)cc(Cl)cc2[C@H](c2cccc(S(=O)(=O)NCCOCCOCCNC(=O)NCCN(CCNC(=O)NCCOCCOCCNS(=O)(=O)c3cccc([C@@H]4CN(C)Cc5c(Cl)cc(Cl)cc54)c3)C(=O)NCCOCCOCCN)c2)C1 [compound 108] | 8.40 | – | – | – | 4 | 13 | 51 | – | – | – |
| CN1Cc2c(Cl)cc(Cl)cc2[C@H](c2cccc(S(=O)(=O)NCCOCCOCCNC(=O)NCCN(CCNC(=O)NCCOCCOCCNS(=O)(=O)c3cccc([C@@H]4CN(C)Cc5c(Cl)cc(Cl)cc54)c3)C(=O)NCCOCCOCCNC(=O)c3ccc(-c4ccc(Cl)cc4)cc3)c2)C1 [compound 110] | 5.80 | – | – | – | 1 | 63 | 68 | – | – | – |
| CC(C)CCC[C@@H](C)[C@H]1CC[C@H]2[C@@H]3CC=C4C[C@@H](OC(=O)NCCOCCOCCNC(=O)N(CCNC(=O)NCCOCCOCCNS(=O)(=O)c5cccc([C@@H]6CN(C)Cc7c(Cl)cc(Cl)cc76)c5)CCNC(=O)NCCOCCOCCNS(=O)(=O)c5cccc([C@@H]6CN(C)Cc7c(Cl)cc(Cl)cc76)c5)CC[C@]4(C)[C@H]3CC[C@]12C [compound 121] | <5.00 | – | – | – | 1 | 92 | 151 | – | – | – |
| CC(C)CCC[C@@H](C)[C@H]1CC[C@H]2[C@@H]3CC=C4C[C@@H](OC(=O)NCCOCCOCCOCCNS(=O)(=O)c5cccc([C@@H]6CN(C)Cc7c(Cl)cc(Cl)cc76)c5)CC[C@]4(C)[C@H]3CC[C@]12C [compound 125] | <5.00 | 1 | 81 | 278 | – | – | – | – | – | – |
